Measured values reported in paper PMC9962329, “Photocaging of Pyridinylimidazole-Based Covalent JNK3 Inhibitors Affords Spatiotemporal Control of the Binding Affinity in Live Cells” (Pharmaceuticals, 2023).

Experiments:
JNK3 [1] = biological target: T1, JNK3 (Homo sapiens, UniProt P53779); experiment: compound washout (kinetic analysis) in the NanoBRET assay; assay type: cell-based; conditions: 2 h incubation at 10-fold IC50, four washes, tracer 1 µM
Description: To study the putative covalent binding of inhibitors 8 and 13, we next applied the compound washout method in the NanoBRET^TM assay. Briefly, we established a protocol where the compound dissociation of 8 and 13 was determined indirectly by their ability to inhibit binding of the ATP-competitive tracer. The covalent inhibitor 1 was used as a positive control, and the propionamide 10 was used as a negative control.
For kinetic analyses experiments, plates were coated with crosslinked gelatin to improve cell adhesion. The transfection of the cells was carried out as described above, but 90 µL of cell suspension were seeded. The next day, cells were first incubated with the test compound in a 10-fold concentration of the respective IC50 value. After 2 h, the unbound compound was removed by washing the cells four times with 100 µL of Leibovitz’ L-15. Furimazine was then added according to the manufacturer`s protocol. Afterwards, a near-saturating concentration of tracer (1 µM) was added, and the measurement was started immediately.

JNK3 [2] = biological target: T1, JNK3; experiment: NanoBRET TE intracellular JNK3 assay; assay type: cell-based; conditions: for IC50 / decreased binding affinity compared to lead structure 1: NanoBRET TE intracellular JNK3 assay; for IC50: tracer K-10 0.25 µM, means of at least two independent experiments, read-out: JNK3 IC50 ± SEM; for decreased binding affinity compared to lead structure 1: relative to 1 (IC50 = 243 nM)
Description: The NanoBRET™ TE intracellular JNK3 assay was performed as previously described by Andreev et al., with minor modifications.
Cells were treated with trypsin and centrifuged (210× g, 5 min) one day prior to the experiment. Afterwards, cells were resuspended in Leibovitz’ L-15 medium, supplemented with 5% FCS and 10 mM HEPES, and the suspension was adjusted to a density of 300.000 cells per mL. Meanwhile the transfection reagent was prepared. For a 96-well plate, transfection carrier DNA (4 µg) (Promega, Fitchburg, WI, USA) and JNK3-NanoLuc® Fusion vector (0.45 µg) (Promega) were diluted in Leibovitz’ L-15 medium (450 µL) and, finally, X-tremeGENE HP (13.5 µL) (Roche Diagnostics, Mannheim, Germany) was added. The mixture was incubated for 20 min at room temperature. Subsequently, the lipid–DNA complex was added to 9 mL of the cell suspension. A total of 80 µL of this cell suspension were added to each well of a white 96-well plate (Brand, Wertheim, Germany), which was incubated for 24 h at 37 °C (no additional CO2).
The fluorescent tracer K-10 (Promega, Mannheim, Germany) was diluted in DMSO to a concentration of 25 µM (100-fold more concentrated than the final assay concentration). This was further diluted 10-fold using the tracer dilution buffer (Promega, Mannheim, Germany), yielding a dilution which was 10-fold more concentrated than the final assay concentration. Next, 10 µL of the final fluorescent tracer dilution were added to the cells (the final concentration of K-10 in the assay was 0.25 µM).

JNK3 [3] = biological target: T1, JNK3; experiment: radiometric JNK3 activity assay at Eurofins Discovery; assay type: biochemical; conditions: for IC50: radiometric JNK3 activity assay; for decreased biological activity compared to parent compound 1: radiometric assay, relative to 1 (IC50 = 6 nM)
JNK3 [4] = biological target: T1, JNK3; set-up: method as in PMID 34081840; conditions: cellular NanoBRET assay, light pulses at 400 nm; cited from earlier work
JNK3 [5] = biological target: T1, JNK3; set-up: method as in PMID 34081840; conditions: light pulses at 390 nm, trans-cis switch; cited from earlier work
JNK3(C154A)-NLuc = biological target: T2, JNK3(C154A)-NLuc (Homo sapiens, UniProt P53779, C154A); experiment: NanoBRET TE intracellular assay with JNK3(C154A)-NLuc mutant; assay type: cell-based; conditions: single point mutation C154A
T2 construct: mutant made in house by PCR
T2 sequence (P53779 whole entry C154A): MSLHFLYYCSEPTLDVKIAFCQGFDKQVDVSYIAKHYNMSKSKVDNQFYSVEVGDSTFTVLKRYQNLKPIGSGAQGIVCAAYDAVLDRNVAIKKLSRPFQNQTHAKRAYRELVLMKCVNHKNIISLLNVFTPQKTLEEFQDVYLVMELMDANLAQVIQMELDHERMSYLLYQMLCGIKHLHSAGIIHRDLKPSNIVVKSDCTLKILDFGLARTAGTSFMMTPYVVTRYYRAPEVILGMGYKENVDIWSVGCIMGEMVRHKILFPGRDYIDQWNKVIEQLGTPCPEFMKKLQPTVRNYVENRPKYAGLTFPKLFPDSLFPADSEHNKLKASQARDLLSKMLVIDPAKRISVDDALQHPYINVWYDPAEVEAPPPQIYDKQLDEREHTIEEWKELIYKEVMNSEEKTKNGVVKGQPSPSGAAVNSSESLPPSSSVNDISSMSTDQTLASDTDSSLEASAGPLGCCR
Description: To generate the cDNA of the JNK3(C154A)-NLuc mutant, JNK3-NanoLuc® Fusion vector (Promega) was used as a template, and two partially overlapping primers (5′-[…] and 5′-[…]) (synthesized by Eurofins, Ebersberg) annealed to the template. Phusion HF DNA Polymerase was obtained from New England BioLabs (Frankfurt, Germany). The polymerase chain reaction (PCR) was carried out as described in the Phusion HF polymerase protocol. The PCR product was treated with Dpn I endonuclease and transformed into competent E. coli Top 10 cells. Point mutation was confirmed by sequencing (Eurofins Discovery).

T1 sequence (P53779 whole entry): as the sequence (P53779 whole entry C154A) above, with A154C counted along it

SMILES | compound dissociation after washout (displacement by tracer) (JNK3 [1]) | IC50 (JNK3 [2]) [nM] | IC50 (JNK3 [3]) [nM] | decreased binding affinity compared to lead structure 1 (JNK3 [2]) [fold] | decreased biological activity compared to parent compound 1 (JNK3 [3]) | decrease in JNK3 binding by introduction of the photocleavable protecting group (JNK3 [2]; NanoBRET assay, without irradiation, relative to parent 13) | increase in inhibitory potency by light (factor) (JNK3 [4]) | increase in biochemical activity by light (factor) (JNK3 [5]) | change in binding affinity for JNK3(C154A)-NLuc versus wildtype JNK3-NLuc (JNK3(C154A)-NLuc)
C=CC(=O)Nc1ccc2c(c1)CCc1cc(Nc3cc(-c4c(-c5ccc(F)cc5)nc(SC)n4C)ccn3)ccc1/N=N\2 [compound 2] |  |  |  |  |  |  | factor of only two | 30 | 
CCC(=O)Nc1cccc(C(=O)N(C)c2ccc(Nc3cc(-c4c(-c5ccc(F)cc5)nc(SC)n4C)ccn3)cc2)c1 [compound 10, N-(4-((4-(4-(4-Fluorophenyl)-1-methyl-2-(methylthio)-1H-imidazol-5-yl)pyridin-2-yl)amino)phenyl)-N-methyl-3-propionamidobenzamide] | quickly displaced by the tracer | 5020 ± 97 | 24 |  |  |  |  |  | 
C=CC(=O)Nc1cccc(NC(=O)c2ccc(N(Cc3cc(OC)c(OC)cc3[N+](=O)[O-])c3cc(-c4c(-c5ccc(F)cc5)nc(SC)n4C)ccn3)cc2)c1 [compound 17, N-(3-Acrylamidophenyl)-4-((4,5-dimethoxy-2-nitrobenzyl)(4-(4-(4-fluorophenyl)-1-methyl-2-(methylthio)-1H-imidazol-5-yl)pyridin-2-yl)amino)benzamide hydrotrifluoroacetate] |  | 9490 ± 538 |  |  |  | nearly one order of magnitude |  |  | 

The next lines start with results.

compound dissociation after washout (displacement by tracer) (JNK3 [1]) | IC50 (JNK3 [2]) [nM] | IC50 (JNK3 [3]) [nM] | decreased binding affinity compared to lead structure 1 (JNK3 [2]) [fold] | decreased biological activity compared to parent compound 1 (JNK3 [3]) | decrease in JNK3 binding by introduction of the photocleavable protecting group (JNK3 [2]; NanoBRET assay, without irradiation, relative to parent 13) | SMILES | increase in inhibitory potency by light (factor) (JNK3 [4]) | increase in biochemical activity by light (factor) (JNK3 [5]) | change in binding affinity for JNK3(C154A)-NLuc versus wildtype JNK3-NLuc (JNK3(C154A)-NLuc)
remained persistently bound | 243 ± 75 | 6 |  |  |  | C=CC(=O)Nc1cccc(C(=O)Nc2ccc(Nc3cc(-c4c(-c5ccc(F)cc5)nc(SC)n4C)ccn3)cc2)c1 [compound 1, acrylamido-N-(4-((4-(4-(4-fluorophenyl)-1-methyl-2-(methylthio)-1H-imidazol-5-yl)pyridin-2-yl)amino)phenyl)benzamide, reference compound] |  |  | 
remained persistently bound | 1360 ± 342 | 14 | 4 | two-fold decreased |  | C=CC(=O)Nc1cccc(C(=O)N(C)c2ccc(Nc3cc(-c4c(-c5ccc(F)cc5)nc(SC)n4C)ccn3)cc2)c1 [compound 8, 3-Acrylamido-N-(4-((4-(4-(4-fluorophenyl)-1-methyl-2-(methylthio)-1H-imidazol-5-yl)pyridin-2-yl)amino)phenyl)-N-methylbenzamide hydrotrifluoroacetate] |  |  | dramatic decrease in the binding affinity
remained persistently bound | 1060 ± 252 | 13 | 5.5 | two-fold decreased |  | C=CC(=O)Nc1cccc(NC(=O)c2ccc(Nc3cc(-c4c(-c5ccc(F)cc5)nc(SC)n4C)ccn3)cc2)c1 [compound 13, N-(3-Acrylamidophenyl)-4-((4-(4-(4-fluorophenyl)-1-methyl-2-(methylthio)-1H-imidazol-5-yl)pyridin-2-yl)amino)benzamide hydrotrifluoroacetate] |  |  | dramatic decrease in the binding affinity
 | > 10000 | 22 |  |  |  | CCC(=O)Nc1cccc(NC(=O)c2ccc(Nc3cc(-c4c(-c5ccc(F)cc5)nc(SC)n4C)ccn3)cc2)c1 [compound 14, 4-((4-(4-(4-Fluorophenyl)-1-methyl-2-(methylthio)-1H-imidazol-5-yl)pyridin-2-yl)amino)-N-(3-propionamidophenyl)benzamide] |  |  | 
